{"source": "patent US10202361B2", "about": "“Pyridazinones as herbicides” (E I DU PONT DE NEMOURS AND COMPANY, priority 2014, dated 2019)", "test_in_all_cases": "Test D pre-/postemergence controlled growth environment herbicide test", "format_in_all_cases": "in vivo", "details_in_all_cases": "scale 0 to 100", "key": {"[1]": {"test_system": "bluegrass (annual bluegrass, Poa annua)", "in_short": "(§1)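 Visual injury scored 0–100 (100 = complete control) against untreated controls, 14–21 d after treatment in a controlled growth environment. Compounds, formulated in non-phytotoxic solvent with surfactant, were applied preemergence to silt loam soil or postemergence to 1- to 4-leaf plants (2–18 cm) in peat-based medium.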"}, "[2]": {"test_system": "chamomile (scentless chamomile, Matricaria inodora)", "in_short": "as §1"}, "[3]": {"test_system": "deadnettle (henbit deadnettle, Lamium amplexicaule)", "in_short": "as §1"}, "[4]": {"test_system": "field poppy (Papaver rhoeas)", "in_short": "as §1"}, "[5]": {"test_system": "field violet (Viola arvensis)", "in_short": "as §1"}, "[6]": {"test_system": "foxtail, green (green foxtail, Setaria viridis)", "in_short": "as §1"}, "[7]": {"test_system": "lambsquarters (Chenopodium album)", "in_short": "as §1"}, "[8]": {"test_system": "oat, wild (wild oat, Avena fatua)", "in_short": "as §1"}, "[9]": {"test_system": "radish, wild (wild radish, Raphanus raphanistrum)", "in_short": "as §1"}, "[10]": {"test_system": "wheat, spring (spring wheat, Triticum aestivum)", "in_short": "as §1"}, "[11]": {"test_system": "windgrass (Apera spica-venti)", "in_short": "as §1"}}, "data": [{"compound": "COc1cc(=O)n(-c2ccc(F)cc2)nc1Cc1ccnc(C(F)(F)F)c1", "note": "[Compound 17, 2-(4-fluorophenyl)-5-methoxy-6-[[2-(trifluoromethyl)-4-pyridinyl]methyl]-3 (2H)-pyridazinone]", "values": [{"measurement": "Plant response rating", "setting": "[1]; Postemergence, 31 g ai/ha", "value": 5}, {"measurement": "Plant response rating", "setting": "[1]; Postemergence, 62 g ai/ha", "value": 5}, {"measurement": "Plant response rating", "setting": "[1]; Postemergence, 125 g ai/ha", "value": 5}, {"measurement": "Plant response rating", "setting": "[1]; Postemergence, 250 g ai/ha", "value": 10}, {"measurement": "Plant response rating", "setting": "[1]; Postemergence, 500 g ai/ha", "value": 20}, {"measurement": "Plant response rating", "setting": "[1]; Preemergence, 31 g ai/ha", "value": 0}, {"measurement": "Plant response rating", "setting": "[1]; Preemergence, 62 g ai/ha", "value": 0}, {"measurement": "Plant response rating", "setting": "[1]; Preemergence, 125 g ai/ha", "value": 25}, {"measurement": "Plant response rating", "setting": "[1]; Preemergence, 250 g ai/ha", "value": 60}, {"measurement": "Plant response rating", "setting": "[1]; Preemergence, 500 g ai/ha", "value": 85}, {"measurement": "Plant response rating", "setting": "[2]; Postemergence, 31 g ai/ha", "value": 20}, {"measurement": "Plant response rating", "setting": "[2]; Postemergence, 62 g ai/ha", "value": 40}, {"measurement": "Plant response rating", "setting": "[2]; Postemergence, 125 g ai/ha", "value": 40}, {"measurement": "Plant response rating", "setting": "[2]; Postemergence, 250 g ai/ha", "value": 60}, {"measurement": "Plant response rating", "setting": "[2]; Postemergence, 500 g ai/ha", "value": 60}, {"measurement": "Plant response rating", "setting": "[2]; Preemergence, 31 g ai/ha", "value": 0}, {"measurement": "Plant response rating", "setting": "[2]; Preemergence, 62 g ai/ha", "value": 80}, {"measurement": "Plant response rating", "setting": "[2]; Preemergence, 125 g ai/ha", "value": 95}, {"measurement": "Plant response rating", "setting": "[2]; Preemergence, 250 g ai/ha", "value": 100}, {"measurement": "Plant response rating", "setting": "[2]; Preemergence, 500 g ai/ha", "value": 100}, {"measurement": "Plant response rating", "setting": "[3]; Postemergence, 31 g ai/ha", "value": 50}, {"measurement": "Plant response rating", "setting": "[3]; Postemergence, 62 g ai/ha", "value": 50}, {"measurement": "Plant response rating", "setting": "[3]; Postemergence, 125 g ai/ha", "value": 65}, {"measurement": "Plant response rating", "setting": "[3]; Postemergence, 250 g ai/ha", "value": 98}, {"measurement": "Plant response rating", "setting": "[3]; Postemergence, 500 g ai/ha", "value": 100}, {"measurement": "Plant response rating", "setting": "[3]; Preemergence, 31 g ai/ha", "value": 100}, {"measurement": "Plant response rating", "setting": "[3]; Preemergence, 62 g ai/ha", "value": 100}, {"measurement": "Plant response rating", "setting": "[3]; Preemergence, 125 g ai/ha", "value": 100}, {"measurement": "Plant response rating", "setting": "[3]; Preemergence, 250 g ai/ha", "value": 100}, {"measurement": "Plant response rating", "setting": "[3]; Preemergence, 500 g ai/ha", "value": 100}, {"measurement": "Plant response rating", "setting": "[4]; Postemergence, 31 g ai/ha", "value": 50}, {"measurement": "Plant response rating", "setting": "[4]; Postemergence, 62 g ai/ha", "value": 75}, {"measurement": "Plant response rating", "setting": "[4]; Postemergence, 125 g ai/ha", "value": 75}, {"measurement": "Plant response rating", "setting": "[4]; Postemergence, 250 g ai/ha", "value": 90}, {"measurement": "Plant response rating", "setting": "[4]; Postemergence, 500 g ai/ha", "value": 100}, {"measurement": "Plant response rating", "setting": "[4]; Preemergence, 31 g ai/ha", "value": 100}, {"measurement": "Plant response rating", "setting": "[4]; Preemergence, 62 g ai/ha", "value": 100}, {"measurement": "Plant response rating", "setting": "[4]; Preemergence, 125 g ai/ha", "value": 100}, {"measurement": "Plant response rating", "setting": "[4]; Preemergence, 250 g ai/ha", "value": 100}, {"measurement": "Plant response rating", "setting": "[4]; Preemergence, 500 g ai/ha", "value": 100}, {"measurement": "Plant response rating", "setting": "[5]; Postemergence, 31 g ai/ha", "value": 60}, {"measurement": "Plant response rating", "setting": "[5]; Postemergence, 62 g ai/ha", "value": 70}, {"measurement": "Plant response rating", "setting": "[5]; Postemergence, 125 g ai/ha", "value": 80}, {"measurement": "Plant response rating", "setting": "[5]; Postemergence, 250 g ai/ha", "value": 100}, {"measurement": "Plant response rating", "setting": "[5]; Postemergence, 500 g ai/ha", "value": 100}, {"measurement": "Plant response rating", "setting": "[5]; Preemergence, 31 g ai/ha", "value": 75}, {"measurement": "Plant response rating", "setting": "[5]; Preemergence, 62 g ai/ha", "value": 85}, {"measurement": "Plant response rating", "setting": "[5]; Preemergence, 125 g ai/ha", "value": 90}, {"measurement": "Plant response rating", "setting": "[5]; Preemergence, 250 g ai/ha", "value": 100}, {"measurement": "Plant response rating", "setting": "[5]; Preemergence, 500 g ai/ha", "value": 100}, {"measurement": "Plant response rating", "setting": "[6]; Postemergence, 31 g ai/ha", "value": 10}, {"measurement": "Plant response rating", "setting": "[6]; Postemergence, 62 g ai/ha", "value": 10}, {"measurement": "Plant response rating", "setting": "[6]; Postemergence, 125 g ai/ha", "value": 15}, {"measurement": "Plant response rating", "setting": "[6]; Postemergence, 250 g ai/ha", "value": 30}, {"measurement": "Plant response rating", "setting": "[6]; Postemergence, 500 g ai/ha", "value": 80}, {"measurement": "Plant response rating", "setting": "[6]; Preemergence, 31 g ai/ha", "value": 15}, {"measurement": "Plant response rating", "setting": "[6]; Preemergence, 62 g ai/ha", "value": 95}, {"measurement": "Plant response rating", "setting": "[6]; Preemergence, 125 g ai/ha", "value": 100}, {"measurement": "Plant response rating", "setting": "[6]; Preemergence, 250 g ai/ha", "value": 100}, {"measurement": "Plant response rating", "setting": "[6]; Preemergence, 500 g ai/ha", "value": 100}, {"measurement": "Plant response rating", "setting": "[7]; Postemergence, 31 g ai/ha", "value": 10}, {"measurement": "Plant response rating", "setting": "[7]; Postemergence, 62 g ai/ha", "value": 50}, {"measurement": "Plant response rating", "setting": "[7]; Postemergence, 125 g ai/ha", "value": 80}, {"measurement": "Plant response rating", "setting": "[7]; Postemergence, 250 g ai/ha", "value": 95}, {"measurement": "Plant response rating", "setting": "[7]; Postemergence, 500 g ai/ha", "value": 100}, {"measurement": "Plant response rating", "setting": "[7]; Preemergence, 31 g ai/ha", "value": 90}, {"measurement": "Plant response rating", "setting": "[7]; Preemergence, 62 g ai/ha", "value": 95}, {"measurement": "Plant response rating", "setting": "[7]; Preemergence, 250 g ai/ha", "value": 90}, {"measurement": "Plant response rating", "setting": "[7]; Preemergence, 500 g ai/ha", "value": 90}, {"measurement": "Plant response rating", "setting": "[8]; Postemergence, 31 g ai/ha", "value": 10}, {"measurement": "Plant response rating", "setting": "[8]; Postemergence, 62 g ai/ha", "value": 10}, {"measurement": "Plant response rating", "setting": "[8]; Postemergence, 125 g ai/ha", "value": 10}, {"measurement": "Plant response rating", "setting": "[8]; Postemergence, 250 g ai/ha", "value": 20}, {"measurement": "Plant response rating", "setting": "[8]; Postemergence, 500 g ai/ha", "value": 50}, {"measurement": "Plant response rating", "setting": "[8]; Preemergence, 31 g ai/ha", "value": 0}, {"measurement": "Plant response rating", "setting": "[8]; Preemergence, 62 g ai/ha", "value": 0}, {"measurement": "Plant response rating", "setting": "[8]; Preemergence, 125 g ai/ha", "value": 50}, {"measurement": "Plant response rating", "setting": "[8]; Preemergence, 250 g ai/ha", "value": 75}, {"measurement": "Plant response rating", "setting": "[8]; Preemergence, 500 g ai/ha", "value": 85}, {"measurement": "Plant response rating", "setting": "[9]; Postemergence, 31 g ai/ha", "value": 30}, {"measurement": "Plant response rating", "setting": "[9]; Postemergence, 62 g ai/ha", "value": 35}, {"measurement": "Plant response rating", "setting": "[9]; Postemergence, 125 g ai/ha", "value": 60}, {"measurement": "Plant response rating", "setting": "[9]; Postemergence, 250 g ai/ha", "value": 100}, {"measurement": "Plant response rating", "setting": "[9]; Postemergence, 500 g ai/ha", "value": 100}, {"measurement": "Plant response rating", "setting": "[9]; Preemergence, 31 g ai/ha", "value": 30}, {"measurement": "Plant response rating", "setting": "[9]; Preemergence, 62 g ai/ha", "value": 100}, {"measurement": "Plant response rating", "setting": "[9]; Preemergence, 125 g ai/ha", "value": 100}, {"measurement": "Plant response rating", "setting": "[9]; Preemergence, 250 g ai/ha", "value": 100}, {"measurement": "Plant response rating", "setting": "[9]; Preemergence, 500 g ai/ha", "value": 100}, {"measurement": "Plant response rating", "setting": "[10]; Postemergence, 31 g ai/ha", "value": 10}, {"measurement": "Plant response rating", "setting": "[10]; Postemergence, 62 g ai/ha", "value": 15}, {"measurement": "Plant response rating", "setting": "[10]; Postemergence, 125 g ai/ha", "value": 20}, {"measurement": "Plant response rating", "setting": "[10]; Postemergence, 250 g ai/ha", "value": 20}, {"measurement": "Plant response rating", "setting": "[10]; Postemergence, 500 g ai/ha", "value": 30}, {"measurement": "Plant response rating", "setting": "[10]; Preemergence, 31 g ai/ha", "value": 0}, {"measurement": "Plant response rating", "setting": "[10]; Preemergence, 62 g ai/ha", "value": 15}, {"measurement": "Plant response rating", "setting": "[10]; Preemergence, 125 g ai/ha", "value": 30}, {"measurement": "Plant response rating", "setting": "[10]; Preemergence, 250 g ai/ha", "value": 70}, {"measurement": "Plant response rating", "setting": "[10]; Preemergence, 500 g ai/ha", "value": 90}, {"measurement": "Plant response rating", "setting": "[11]; Postemergence, 31 g ai/ha", "value": 0}, {"measurement": "Plant response rating", "setting": "[11]; Postemergence, 62 g ai/ha", "value": 5}, {"measurement": "Plant response rating", "setting": "[11]; Postemergence, 125 g ai/ha", "value": 5}, {"measurement": "Plant response rating", "setting": "[11]; Postemergence, 250 g ai/ha", "value": 10}, {"measurement": "Plant response rating", "setting": "[11]; Postemergence, 500 g ai/ha", "value": 25}, {"measurement": "Plant response rating", "setting": "[11]; Preemergence, 31 g ai/ha", "value": 80}, {"measurement": "Plant response rating", "setting": "[11]; Preemergence, 62 g ai/ha", "value": 80}, {"measurement": "Plant response rating", "setting": "[11]; Preemergence, 125 g ai/ha", "value": 100}, {"measurement": "Plant response rating", "setting": "[11]; Preemergence, 250 g ai/ha", "value": 100}, {"measurement": "Plant response rating", "setting": "[11]; Preemergence, 500 g ai/ha", "value": 100}]}]}
